Reference: patent publication US10774112B2, “Biomimetic peptide and biodegradable delivery platform for the treatment of angiogenesis- and lymphangiogenesis-dependent diseases” (THE JOHNS HOPKINS UNIVERSITY, priority 2013, dated 2020)

Assays:
[1] = tested on: human umbilical vein endothelial cells (HUVEC); assay: Migration assay (RT-CIM), HUVEC; type: cell-based; conditions: FIG. 1
Protocol: The inhibitory potential of the peptides was measured using a real time migration assay system based on electrical impedance (RT-CIM, ACEA Biosciences, CA). CIM 16 well plates (Roche, 05665817001) are composed of a top and bottom chamber separated by a microporous (8 μm) polycarbonate membrane. The membrane was coated with fibronectin (20 μg/mL), and 45,000 cells/well in serum free media with or without peptides were added to the top compartment. Media with chemoattractant (i.e., fully supplemented EBM-2) was added to the bottom compartment of the chamber and the plate was incubated at 37° C. for 20 hours. The sensors integrated on the bottom side of the membrane monitor and continuously record changes in impedance as the cells move through the membrane. The RT-CIM technology allows for easy quantification of cell migration by monitoring the cell index derived from the measured impedances. Assays were performed in at least two independent replicates and each replicate was performed using two experimental duplicates. Breast cancer cells MDA-MB-231 are not suitable for the RT-CIM type experiments due to their thin elongated phenotype, thus the inhibition of migration was investigated using a wound healing type assay. This assay was performed using the Oris Pro Migration assay (Platypus Technologies, CMA 1.101). […]

[2] = tested on: HUVEC; assay: HUVEC tube formation assay; type: cell-based, human; conditions: 25 μM peptide; FIG. 3 A-B
Protocol: Tube Formation Inhibition Assays.
The compositions also were tested for their ability to inhibit tube formation, a process critical in angiogenesis. Endothelial cells spontaneously form a network of tubes when plated on extracts of extracellular matrix. This in vitro assay combines aspects of adhesion and migration and it is routinely used in angiogenesis research (Oliveira-Ferrer et al., 2008). The ability to inhibit tube formation is a comprehensive assessment of the anti-angiogenic potential. The protocol was described by Arnaoutova et al. (2009) and it consists of plating HUVEC on top of basement membrane extract. After incubation at 37° C., the cells naturally rearrange themselves in a network of tubes. Thus, 50 μL/well of Matrigel (BD Biosciences, San Jose, Calif.) was plated in a cold 96 well plate and incubated at 37° C. for 30 min for polymerization. 15,000 cells/well were added to the top of the gel and incubated in complete media in the presence or absence of peptide for 19 hours. Images were captured using the CCD Sensicam mounted on a Nikon microscope (Eclipse T-100). Assays were performed in at least two independent replicates and each replicate was performed using three experimental replicates and one image of a randomly chosen field was acquired per well.

[3] = tested on: microvascular endothelial cell (MEC); assay: MEC tube formation assay; type: cell-based; conditions: 25 μM peptide; FIG. 3 C-D
[4] = tested on: hepatocyte growth factor (HGF) signaling; assay: HGF signaling in vitro in MEC; type: cell-based; conditions: FIG. 6
[5] = tested on: c-Met; assay: Phosphorylation of c-Met in vivo; conditions: FIG. 10
[6] = tested on: choroidal neovascularization; assay: Laser induced choroidal neovascularization (CNV) model; type: in vivo, mice
Protocol: Mouse Model of Choroidal Neovascularization (CNV).
Laser photocoagulation-induced rupture of Bruch's membrane was used to generate CNV. Briefly, 4-5 week old female C57BL/6J mice were anesthetized with xylazine hydrochloride (10 mg/kg) and ketamine hydrochloride (50 mg/kg) and the pupils were dilated with 1% tropicamide (Alcon Labs, Inc., Fort Worth, Tex., USA). Three burns of 532-nm diode laser photocoagulation (75 μm spot size, 0.1 s duration, 120 mW) were delivered to each retina using the slit lamp delivery system of an OcuLight GL Photocoagulator (Index, Mountain View, Calif., USA) and a hand-held cover slide as a contact lens. Burns were performed in the 9, 12 and 3 o'clock positions of the posterior pole of the retina. Production of a bubble at the time of laser photocoagulation, which indicates rupture of Bruch's membrane, is an important factor in obtaining CNV, so only burns in which a bubble was produced were included in the study. Treatments were begun seven days after laser photocoagulation and included intravitreous injections of 0.1% of SP2043 (SEQ ID NO: 1) (1 μg in a volume of 1 μL), 1% ([…] in a volume of 1 μL of SP2043 (SEQ ID NO: 1)) or vehicle under a dissecting microscope with a Harvard Pump Microinjection System (Harvard Apparatus, Holliston, Mass.) and pulled glass micropipettes. Some mice were euthanized for baseline measurement. Fourteen days after laser, the remaining mice were used to measure the amount of CNV at Bruch's membrane rupture sites. Two weeks after rupture of Bruch's membrane, mice were anesthetized and perfused with fluorescein-labeled dextran (2×10^6 average mol wt, Sigma-Aldrich, St. Louis, Mo., USA) and choroidal flat mounts were prepared as described previously. Briefly, the eyes were removed, fixed for 1 h in 10% phosphate-buffered formalin, and the cornea and lens were removed. […] Flat mounts were examined by fluorescence microscopy using an Axioskop microscope (Zeiss, Thornwood, N.Y., USA) and images were digitized using a 3 CCD color video camera (IK-TU40A, Toshiba, Tokyo, Japan) and a frame grabber. […]

[7] = tested on: neovasculature in laser induced CNV; assay: CNV regression model; type: in vivo, mice; conditions: mouse eye; free peptide; FIG. 14
Protocol: Bruch's membranes of both eyes of C57BL/6J mice were ruptured with a laser after anesthetizing the mice and dilating their pupils with 1% tropicamide. Seven days later, some mice were sacrificed to establish baseline neovascularization. At that time, 1 μg of SP2043 (SEQ ID NO: 1) was administered in one eye and vehicle in the fellow eye of other mice. Seven days later, all animals were perfused with fluorescein-labeled dextran, eyes removed, the retina dissected and flatmounted after making radial cuts, and fluorescence was measured. The images were digitized using a 3-color charge-coupled device video camera and a frame grabber and the area of hypervascularization was quantified by image-analysis software.

Sequence: LRRFSTAPFAFIDINDVINF (Artificial sequence based on human Collagen Type IV protein) [SP2043]
- migration of HUVEC [1]: inhibit
- HUVEC tube formation [2]: inhibit
- MEC tube formation [3]: inhibit
- HGF signaling in MEC [4]: inhibit
- phosphorylation of c-Met in vivo [5]: inhibit
- effect in combination with other anti-angiogenesis agents, such as aflibercept ([6]; laser-induced choroidal neovascularization model in mice, FIG. 28): increased effect
- neovascularization in laser induced CNV model ([6]; mouse, FIGS. 13A-B): inhibited
- potency in laser induced CNV model compared with aflibercept ([6]; mouse, FIGS. 13A-B): more potently than aflibercept
- regression of the neovasculature in laser induced CNV model [7]: caused regression
